Test results from US20160095843A1, “PYRAZOLOPYRROLIDINE DERIVATIVES AND THEIR USE IN THE TREATMENT OF DISEASE” (NOVARTIS AG, priority 2013, published 2016).

What was measured:
[1] = test system: K-562 cells; assay: Cell growth inhibition assay (CellTiter-Glo), K-562; assay type: cell-based, human; settings: Homo sapiens, K562
How it was run: (§1)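 Cellular ATP (CellTiter-Glo luminescence) measured after 4 days at 37° C., 5% CO2 of compound exposure, top concentration 10 μM in 3-fold steps, 0.1% DMSO. Readings corrected for no-cell background and a day-0 plate, normalised to vehicle and medium wells; half-maximal and total growth inhibition from four-parameter curves.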

[2] = test system: MV-4-11 cells; assay: Cell growth inhibition assay (CellTiter-Glo), MV-4-11; assay type: cell-based; settings: Homo sapiens, MV4-11
How it was run: as §1

[3] = test system: THP-1 cells; assay: Cell growth inhibition assay (CellTiter-Glo), THP-1; assay type: cell-based; settings: Homo sapiens
How it was run: as §1

Row | Compound | GI50 [1] | GI50 [2] | GI50 [3]
1 | Cc1cc(N2C(=O)c3nn(C4COC4)c(C)c3C2c2ccc(Cl)cc2)cn(C)c1=O (stereo not drawn) [Example 134, 4-(4-chlorophenyl)-5-(1,5-dimethyl-6-oxo-1,6-dihydropyridin-3-yl)-3-methyl-2-(oxetan-3-yl)-4,5-dihydropyrrolo[3,4-c]pyrazol-6(2H)-one] | 574 nM | 117 nM | 161 nM
2 | Cc1nn(C2COC2)c2c1C(c1ccc(Cl)cc1)N(c1cc(C)c(=O)n(C)c1)C2=O (stereo not drawn) [Example 135, 4-(4-chlorophenyl)-5-(1,5-dimethyl-6-oxo-1,6-dihydropyridin-3-yl)-3-methyl-1-(oxetan-3-yl)-4,5-dihydropyrrolo-[3,4-c]pyrazol-6(1H)-one] | 616 nM | 79.9 nM | 86.1 nM
3 | Cc1nn(C2CNC2)c2c1C(c1ccc(Cl)cc1)N(c1cc(C)c(=O)n(C)c1)C2=O (stereo not drawn) [Example 138, 1-(azetidin-3-yl)-4-(4-chlorophenyl)-5-(1,5-dimethyl-6-oxo-1,6-dihydropyridin-3-yl)-3-methyl-4,5-dihydropyrrolo[3,4-c]pyrazol-6(1H)-one] | 2060 nM | 251 nM | 904 nM
4 | Cc1cc(N2C(=O)c3nn(C4CN(C)C4)c(C)c3C2c2ccc(Cl)cc2)cn(C)c1=O (stereo not drawn) [Example 139, 4-(4-chlorophenyl)-5-(1,5-dimethyl-6-oxo-1,6-dihydropyridin-3-yl)-3-methyl-2-(1-methylazetidin-3-yl)-4,5-dihydropyrrolo-[3,4-c]pyrazol-6(2H)-one] | 591 nM | 72.9 nM | 190 nM
5 | Cc1nn(C2CN(C)C2)c2c1C(c1ccc(Cl)cc1)N(c1cc(C)c(=O)n(C)c1)C2=O (stereo not drawn) [Example 140, 4-(4-chlorophenyl)-5-(1,5-dimethyl-6-oxo-1,6-dihydropyridin-3-yl)-3-methyl-1-(1-methylazetidin-3-yl)-4,5-dihydropyrrolo-[3,4-c]pyrazol-6(1H)-one] | 1370 nM | 106 nM | 392 nM
6 | Cc1cc(N2C(=O)c3nn(C(=O)N(C)C)c(C)c3C2c2ccc(Cl)cc2)cn(C)c1=O (stereo not drawn) [Example 141] | 1190 nM | 136 nM | 281 nM
7 | Cc1nn(C(=O)N(C)C)c2c1C(c1ccc(Cl)cc1)N(c1cc(C)c(=O)n(C)c1)C2=O (stereo not drawn) [Example 142] | 712 nM | 79.3 nM | 239 nM
8 | CNC(=O)n1nc(C)c2c1C(=O)N(c1cc(C)c(=O)n(C)c1)C2c1ccc(Cl)cc1 (stereo not drawn) [Example 143, 4-(4-chlorophenyl)-5-(1,5-dimethyl-6-oxo-1,6-dihydropyridin-3-yl)-N,3-dimethyl-6-oxo-5,6-dihydropyrrolo-[3,4-c]pyrazole-1(4H)-carboxamide] | 1200 nM | 86 nM | 300 nM
9 | CNC(=O)n1nc(C)c2c1C(=O)N(c1cc(C)c3nnc(C)n3c1)C2c1ccc(Cl)cc1 (stereo not drawn) [Example 145, 4-(4-chlorophenyl)-5-(3,8-dimethyl-[1,2,4]triazolo[4,3-a]pyridin-6-yl)-N,3-dimethyl-6-oxo-5,6-dihydropyrrolo[3,4-c]pyrazole-1(4H)-carboxamide] | 875 nM | 49.9 nM | 176 nM
10 | CCc1nn(C(=O)N(C)C)c2c1C(c1ccc(Cl)cc1)N(c1cc(C)c(=O)n(C)c1)C2=O (stereo not drawn) [Example 147, 4-(4-chlorophenyl)-5-(1,5-dimethyl-6-oxo-1,6-dihydropyridin-3-yl)-3-ethyl-N,N-dimethyl-6-oxo-5,6-dihydropyrrolo[3,4-c]pyrazole-1(4H)-carboxamide] | 792 nM | 67 nM | 157 nM
11 | CCc1c2c(nn1C(=O)N(C)C)C(=O)N(c1cc(C)c(=O)n(C)c1)C2c1ccc(Cl)cc1 (stereo not drawn) [Example 148, 4-(4-chlorophenyl)-5-(1,5-dimethyl-6-oxo-1,6-dihydropyridin-3-yl)-3-ethyl-N,N-dimethyl-6-oxo-5,6-dihydropyrrolo-[3,4-c]pyrazole-2(4H)-carboxamide] | 1130 nM | 81.7 nM | 157 nM
12 | Cc1nn(C2CNC2)c2c1C(c1ccc(Cl)cc1)N(c1cc(C)c3nnc(C)n3c1)C2=O (stereo not drawn) [Example 151, 1-(azetidin-3-yl)-4-(4-chlorophenyl)-5-(3,8-dimethyl-[1,2,4]triazolo[4,3-a]pyridin-6-yl)-3-methyl-4,5-dihydropyrrolo[3,4-c]pyrazol-6(1H)-one] | 2610 nM | 226 nM | 778 nM
13 | Cc1cc(N2C(=O)c3nn(C4CNC4)c(C)c3C2c2ccc(Cl)cc2)cn2c(C)nnc12 (stereo not drawn) [Example 152, 2-(azetidin-3-yl)-4-(4-chlorophenyl)-5-(3,8-dimethyl-[1,2,4]triazolo[4,3-a]pyridin-6-yl)-3-methyl-4,5-dihydropyrrolo[3,4-c]pyrazol-6(2H)-one] | 4330 nM | 438 nM | 2600 nM
14 | CC(=O)N1CC(n2nc(C)c3c2C(=O)N(c2cc(C)c(=O)n(C)c2)C3c2ccc(Cl)cc2)C1 (stereo not drawn) [Example 153, 1-(1-acetylazetidin-3-yl)-4-(4-chlorophenyl)-5-(1,5-dimethyl-6-oxo-1,6-dihydropyridin-3-yl)-3-methyl-4,5-dihydropyrrolo[3,4-c]pyrazol-6(1H)-one] | 925 nM | 115 nM | 229 nM
15 | CC(=O)N1CC(n2nc(C)c3c2C(=O)N(c2cc(C)c4nnc(C)n4c2)C3c2ccc(Cl)cc2)C1 (stereo not drawn) [Example 154, 1-(1-acetylazetidin-3-yl)-4-(4-chlorophenyl)-5-(3,8-dimethyl-[1,2,4]triazolo[4,3-a]pyridin-6-yl)-3-methyl-4,5-dihydropyrrolo[3,4-c]pyrazol-6(1H)-one] | 956 nM | 59 nM | 243 nM
16 | CCOC(=O)N1CC(n2nc(C)c3c2C(=O)N(c2cc(C)c(=O)n(C)c2)C3c2ccc(Cl)cc2)C1 (stereo not drawn) [Example 155, Ethyl 3-(4-(4-chlorophenyl)-5-(1,5-dimethyl-6-oxo-1,6-dihydropyridin-3-yl)-3-methyl-6-oxo-5,6-dihydropyrrolo[3,4-c]pyrazol-1(4H)-yl)azetidine-1-carboxylate] | 638 nM | 73.4 nM | 120 nM
17 | Cc1nn(C2CN(C)C2)c2c1C(c1ccc(Cl)cc1)N(c1cc(C)c3nnc(C)n3c1)C2=O (stereo not drawn) [Example 157, 4-(4-chlorophenyl)-5-(3,8-dimethyl-[1,2,4]triazolo[4,3-a]pyridin-6-yl)-3-methyl-1-(1-methylazetidin-3-yl)-4,5-dihydropyrrolo[3,4-c]pyrazol-6(1H)-one] | 534 nM | 50 nM | 158 nM

Stronger by GI50 [1], values ahead:

Row | GI50 [1] | GI50 [2] | GI50 [3] | Compound
18 | 335 nM | 28.2 nM | 80.2 nM | Cc1cc(N2C(=O)c3nn(C4COC4)c(C)c3C2c2ccc(Cl)cc2)cn2c(C)nnc12 (stereo not drawn) [Example 136, 4-(4-chlorophenyl)-5-(3,8-dimethyl-[1,2,4]triazolo[4,3-a]pyridin-6-yl)-3-methyl-2-(oxetan-3-yl)-4,5-dihydropyrrolo-[3,4-c]pyrazol-6(2H)-one]
19 | 248 nM | 23.1 nM | 64 nM | Cc1nn(C2COC2)c2c1C(c1ccc(Cl)cc1)N(c1cc(C)c3nnc(C)n3c1)C2=O (stereo not drawn) [Example 137, 4-(4-chlorophenyl)-5-(3,8-dimethyl-[1,2,4]triazolo[4,3-a]pyridin-6-yl)-3-methyl-1-(oxetan-3-yl)-4,5-dihydropyrrolo[3,4-c]pyrazol-6(1H)-one]
20 | 432 nM | 59.8 nM | 214 nM | CNC(=O)n1nc2c(c1C)C(c1ccc(Cl)cc1)N(c1cc(C)c(=O)n(C)c1)C2=O (stereo not drawn) [Example 144, 4-(4-chlorophenyl)-5-(1,5-dimethyl-6-oxo-1,6-dihydropyridin-3-yl)-N,3-dimethyl-6-oxo-5,6-dihydropyrrolo-[3,4-c]pyrazole-2(4H)-carboxamide]
21 | 314 nM | 39.2 nM | 150 nM | CNC(=O)n1nc2c(c1C)C(c1ccc(Cl)cc1)N(c1cc(C)c3nnc(C)n3c1)C2=O (stereo not drawn) [Example 146, 4-(4-chlorophenyl)-5-(3,8-dimethyl-[1,2,4]triazolo[4,3-a]pyridin-6-yl)-N,3-dimethyl-6-oxo-5,6-dihydropyrrolo[3,4-c]pyrazole-2(4H)-carboxamide]
22 | 348 nM | 28 nM | 68.8 nM | Cc1nn(C(=O)N(C)C)c2c1[C@@H](c1ccc(Cl)cc1)N(c1cc(C)c3nnc(C)n3c1)C2=O [Example 149, (R)-4-(4-chlorophenyl)-5-(3,8-dimethyl-[1,2,4]triazolo[4,3-a]pyridin-6-yl)-N,N,3-trimethyl-6-oxo-5,6-dihydropyrrolo-[3,4-c]pyrazole-1(4H)-carboxamide]
23 | 406 nM | 55.5 nM | 101 nM | Cc1cc(N2C(=O)c3nn(C(=O)N(C)C)c(C)c3[C@H]2c2ccc(Cl)cc2)cn2c(C)nnc12 [Example 150, (R)-4-(4-chlorophenyl)-5-(3,8-dimethyl-[1,2,4]triazolo[4,3-a]pyridin-6-yl)-N,N,3-trimethyl-6-oxo-5,6-dihydropyrrolo-[3,4-c]pyrazole-2(4H)-carboxamide]
24 | 374 nM | 35.6 nM | 69.6 nM | CCOC(=O)N1CC(n2nc(C)c3c2C(=O)N(c2cc(C)c4nnc(C)n4c2)C3c2ccc(Cl)cc2)C1 (stereo not drawn) [Example 156, Ethyl 3-(4-(4-chlorophenyl)-5-(3,8-dimethyl-[1,2,4]triazolo[4,3-a]pyridin-6-yl)-3-methyl-6-oxo-5,6-dihydropyrrolo[3,4-c]pyrazol-1(4H)-yl)azetidine-1-carboxylate]
25 | 484 nM | 26.6 nM | 142 nM | Cc1cc(N2C(=O)c3nn(C4CN(C)C4)c(C)c3C2c2ccc(Cl)cc2)cn2c(C)nnc12 (stereo not drawn) [Example 158, 4-(4-chlorophenyl)-5-(3,8-dimethyl-[1,2,4]triazolo[4,3-a]pyridin-6-yl)-3-methyl-2-(1-methylazetidin-3-yl)-4,5-dihydropyrrolo-[3,4-c]pyrazol-6(2H)-one]
